Laboratory results reported in PubChem BioAssay (NCI).
Values joined by “and” are separate entries in the source; they are usually repeats but may differ in a detail not shown here. Identical values can stand only once.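 A five-concentration, 48-hour dose response in 96-well plates underlies each endpoint, interpolated linearly between surrounding concentrations. The concentration for 50% growth inhibition is given as GI50. The concentration for full growth arrest is given as TGI.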

Experiments:
Assay in all cases: inhibition of tumour cell growth, NCI panel, 48 h
[1] = tested on: NCI-H522 lung
[2] = tested on: HL-60(TB) leukemia
[3] = tested on: COLO 205 colon
[4] = tested on: ACHN renal
[5] = tested on: RXF 393 renal
[6] = tested on: CAKI-1 renal
[7] = tested on: TK-10 renal
[8] = tested on: DMS 273 small cell lung
[9] = tested on: SN12C renal
[10] = tested on: RPMI-8226 leukemia
[11] = tested on: MALME-3M melanoma
[12] = tested on: SR leukemia
[13] = tested on: M19-MEL melanoma
[14] = tested on: OVCAR-4 ovarian
[15] = tested on: NCI-H226 lung
[16] = tested on: HOP-92 NSCLC
[17] = tested on: HOP-18 NSCLC
[18] = tested on: SNB-78 CNS
[19] = tested on: NCI-H23 lung
[20] = tested on: SK-MEL-5 melanoma
[21] = tested on: SW-620 colon
[22] = tested on: HCT-116 colon
[23] = tested on: M14 melanoma
[24] = tested on: HCC-2998 colon
[25] = tested on: SK-MEL-2 melanoma
[26] = tested on: XF 498 CNS
[27] = tested on: SK-MEL-28 melanoma
[28] = tested on: OVCAR-8 ovarian
[29] = tested on: SK-OV-3 ovarian
[30] = tested on: OVCAR-3 ovarian
[31] = tested on: HOP-62 NSCLC
[32] = tested on: SNB-75 CNS
[33] = tested on: UACC-257 melanoma
[34] = tested on: EKVX NSCLC
[35] = tested on: U251 CNS
[36] = tested on: OVCAR-5 ovarian
[37] = tested on: HCT-15 colon
[38] = tested on: DLD-1 colon
[39] = tested on: SF-268 CNS
[40] = tested on: SF-539 CNS
[41] = tested on: KM20L2 colon
[42] = tested on: CCRF-CEM leukemia
[43] = tested on: K-562 leukemia
[44] = tested on: HT29 colon
[45] = tested on: LXFL 529 NSCLC
[46] = tested on: LOX IMVI melanoma
[47] = tested on: MOLT-4 leukemia
[48] = tested on: UACC-62 melanoma
[49] = tested on: 786-0 renal
[50] = tested on: A549 NSCLC
[51] = tested on: IGROV1 ovarian
[52] = tested on: A498 renal
[53] = tested on: KM12 colon
[54] = tested on: DMS 114 small cell lung
[55] = tested on: NCI-H460 lung
[56] = tested on: SF-295 CNS
[57] = tested on: UO-31 renal
[58] = tested on: SNB-19 CNS

With `COc1ccc(C2=C[C@]3(O)CCCN3C[C@@H]2c2ccc(OC)c(OC)c2)cc1` the TGI [1] was under 0.0001 µM, the TGI [2] was under 0.0001 µM and the TGI [3] was under 0.0001 µM. The TGI [4] was 0.00185 µM, the TGI [5] was 0.0223 µM and the TGI [6] was 0.00162 µM. The TGI [7] was 0.611 µM, the TGI [8] was 0.000172 µM and the TGI [9] was over 100 µM. For the same compound, the TGI [10] was 13.9 µM, the TGI [11] was under 0.0001 µM and the TGI [12] was under 0.0001 µM. It also gave a TGI [13] of 0.000396 µM, a TGI [14] of 0.0384 µM and a TGI [15] of under 0.0001 µM. It also gave a TGI [16] of 0.000527 µM, a TGI [17] of 0.000214 µM and a TGI [18] of 0.0338 µM. For the same compound, the TGI [19] was 0.000105 µM, the TGI [20] was under 0.0001 µM and the TGI [21] was 0.00183 µM. For the same compound, the TGI [22] was 0.00112 µM, the TGI [23] was under 0.0001 µM and the TGI [24] was 0.101 µM. For the same compound, the TGI [25] was 0.000164 µM, the TGI [26] was 0.449 µM and the TGI [27] was 0.00216 µM and 0.0197 µM.
`CCC[CH2][Sn]([CH2]CCC)([O]C(=O)CN)[O]C(=O)CN` showed a GI50 [1] of 11.6 µM, a TGI [1] of 38 µM and a GI50 [28] of 69 µM. It also gave a TGI [28] of over 100 µM, a GI50 [29] of over 100 µM and a TGI [29] of over 100 µM. The GI50 [30] was 27.8 µM, the TGI [30] was over 100 µM and the GI50 [2] was 18.5 µM. For the same compound, the TGI [2] was 65 µM, the GI50 [31] was 7.25 µM and the TGI [31] was over 100 µM. For the same compound, the GI50 [3] was 42.9 µM, the TGI [3] was over 100 µM and the GI50 [32] was 29.6 µM. For the same compound, the TGI [32] was over 100 µM, the GI50 [4] was 48.1 µM and the TGI [4] was over 100 µM. It also gave a GI50 [5] of 16.2 µM, a TGI [5] of 44.3 µM and a GI50 [6] of 14.7 µM. The TGI [6] was 51.1 µM, the GI50 [33] was 50.4 µM and the TGI [33] was over 100 µM. For the same compound, the GI50 [34] was 16 µM, the TGI [34] was 51.2 µM and the GI50 [35] was 26 µM. It also gave a TGI [35] of 80.7 µM, a GI50 [36] of over 100 µM and a TGI [36] of over 100 µM. It also gave a GI50 [37] of 26.9 µM, a TGI [37] of 63.6 µM and a GI50 [7] of 38.4 µM. The TGI [7] was over 100 µM, the GI50 [8] was 38.6 µM and the TGI [8] was over 100 µM. It also gave a GI50 [9] of 57.2 µM, a TGI [9] of over 100 µM and a GI50 [38] of 92.7 µM. For the same compound, the TGI [38] was over 100 µM, the GI50 [39] was 20.6 µM and the TGI [39] was 71.6 µM. It also gave a GI50 [10] of 15.3 µM, a TGI [10] of 54.5 µM and a GI50 [11] of 6.1 µM. For the same compound, the TGI [11] was 41.2 µM, the GI50 [40] was 57 µM and the TGI [40] was over 100 µM. The GI50 [41] was 63.6 µM, the TGI [41] was over 100 µM and the GI50 [42] was 5.93 µM. It also gave a TGI [42] of 51.8 µM, a GI50 [12] of 22.9 µM and a TGI [12] of 95.6 µM. It also gave a GI50 [43] of 18.7 µM, a TGI [43] of over 100 µM and a GI50 [44] of over 100 µM. The TGI [44] was over 100 µM, the GI50 [45] was 11.4 µM and the TGI [45] was 26 µM. For the same compound, the GI50 [13] was 49.7 µM, the TGI [13] was over 100 µM and the GI50 [14] was over 100 µM. It also gave a TGI [14] of over 100 µM, a GI50 [15] of over 100 µM and a TGI [15] of over 100 µM. The GI50 [46] was 22.1 µM, the TGI [46] was 59.7 µM and the GI50 [16] was 73.2 µM. The TGI [16] was over 100 µM, the GI50 [47] was 29.1 µM and the TGI [47] was over 100 µM. The GI50 [48] was 17.5 µM, the TGI [48] was 60.5 µM and the GI50 [49] was 33 µM. For the same compound, the TGI [49] was over 100 µM, the GI50 [50] was over 100 µM and the TGI [50] was over 100 µM. It also gave a GI50 [18] of 21.6 µM, a TGI [18] of 72 µM and a GI50 [51] of over 100 µM. The TGI [51] was over 100 µM, the GI50 [52] was 44.8 µM and the TGI [52] was over 100 µM. The GI50 [19] was 21.1 µM, the TGI [19] was 70.2 µM and the GI50 [53] was over 100 µM. The TGI [53] was over 100 µM, the GI50 [20] was 66.6 µM and the TGI [20] was over 100 µM. It also gave a GI50 [21] of 18.1 µM, a TGI [21] of 37 µM and a GI50 [22] of 71.2 µM. It also gave a TGI [22] of over 100 µM, a GI50 [54] of 17.9 µM and a TGI [54] of 46.5 µM. It also gave a GI50 [55] of over 100 µM, a TGI [55] of over 100 µM and a GI50 [23] of 36.7 µM. The TGI [23] was over 100 µM, the GI50 [56] was 34.5 µM and the TGI [56] was over 100 µM. It also gave a GI50 [24] of 93.3 µM, a TGI [24] of over 100 µM and a GI50 [25] of 18.5 µM. The TGI [25] was 48.8 µM, the GI50 [26] was 19.6 µM and the TGI [26] was 48 µM. It also gave a GI50 [27] of 29.2 µM, a TGI [27] of over 100 µM and a GI50 [57] of over 100 µM. It also gave a TGI [57] of over 100 µM, a GI50 [58] of 45.5 µM and a TGI [58] of over 100 µM.
For `O=S(Cc1ccccc1)c1nc2ccccc2nc1-c1cccs1` (stereo unspecified), the TGI [1] was 3.4 µM, the TGI [28] was 38.8 µM and the TGI [29] was 85.4 µM. It also gave a TGI [30] of 24 µM, a TGI [2] of over 100 µM and a TGI [31] of 37.4 µM. The TGI [3] was 42.7 µM, the TGI [32] was 36.1 µM and the TGI [4] was 26.9 µM. The TGI [33] was 26.5 µM, the TGI [34] was 60.6 µM and the TGI [35] was 33.5 µM. For the same compound, the TGI [36] was 31.9 µM, the TGI [37] was 25.5 µM and the TGI [7] was 28 µM. It also gave a TGI [8] of 22.7 µM, a TGI [9] of 28.1 µM and a TGI [38] of 24.6 µM. For the same compound, the TGI [39] was 51.4 µM, the TGI [10] was 68 µM and the TGI [11] was 19.4 µM. The TGI [40] was 30 µM, the TGI [42] was over 100 µM and the TGI [43] was over 100 µM. For the same compound, the TGI [44] was 27.1 µM, the TGI [45] was 12.8 µM and the TGI [13] was 22.6 µM. It also gave a TGI [14] of 24.6 µM, a TGI [15] of 16.7 µM and a TGI [16] of 29.8 µM. For the same compound, the TGI [47] was over 100 µM, the TGI [17] was 29.5 µM and the TGI [49] was 23.4 µM. The TGI [50] was 30.7 µM, the TGI [18] was 56.2 µM and the TGI [51] was 29.2 µM. It also gave a TGI [19] of 33.8 µM, a TGI [53] of 34.5 µM and a TGI [20] of 23.7 µM. The TGI [22] was 23.3 µM, the TGI [54] was 5.91 µM and the TGI [55] was 45.4 µM. It also gave a TGI [23] of 25.4 µM, a TGI [56] of 52.9 µM and a TGI [24] of 26.1 µM. For the same compound, the TGI [25] was 24.2 µM, the TGI [26] was 12.3 µM and the TGI [27] was 23.9 µM. It also gave a TGI [57] of 41 µM and a TGI [58] of 39.4 µM.
